# Test system: Arg-1
# Experiment: Arg-1 expression in bone marrow monocyte-derived macrophages differentiated in vitro, flow cytometry
# Format: cell-based, mouse
# Procedure: (B) Mice were administered K/B×N serum on days 0, 2 and 9 then on day 12 they were treated 2×10^6 PKH67-labelled monocytes isolated from arthritic mice and incubated with either vehicle (PBS+0.1% EtOH) or 1 nM MCTR3 for 90 min via i.v injection. After 10 days joints were harvested, cells were liberated that the expression of Arg-1 was evaluated in PKH67^+CD64^+ cells using flow cytometry. Results are from n=10 mice per group. Statistical differences were evaluated using a Mann-Whitney U test. (C) Inflammatory arthritis was induced in C57BL/6 mice and bone marrow-derived monocytes were isolated and treated as in A and Arg-1 expression was evaluated using flow cytometry. Results are mean±SEM and expressed as percentage change from cells incubated with vehicle alone. n=8 per group from two separate experiments. Statistical differences were evaluated using one-sample Wilcoxon signed rank test. (D) Mice were given K/B×N serum (via i.p. injection) on days 0, 2 and 9. […] On day 22, joints were collected and the expression of Arg-1 in PKH67^+ CD64^+ cells was evaluated using flow cytometry. Results are mean±SEM and expressed as percentage change from vehicle group. n=5 mice per group. Statistics differences were evaluated Mann-Whitney U test. […]
compound,measurement,setting,value
O=C(O)C(Cc1c[nH]c2ccccc12)N1C(=O)c2ccccc2C1=O (centres unmarked) [RG108],ability of MCTR3 to upregulate Arg-1 in vitro,monocytes incubated with 10 μM RG108 for 45 min before 1 nM MCTR3,reversed
"CC/C=C\C/C=C\C[C@H](O)[C@@H](/C=C/C=C/C=C\C/C=C\CCC(=O)O)SC[C@H](N)C(=O)O [MCTR3, 13R-cysteinyl, 14S-hydroxy-4Z, 7Z, 9E, 11E, 13R, 14S, 16Z, 19Z-docosahexaenoic acid]",Arg-1 expression in MDM differentiated in vitro,1 nM MCTR3 for 24 hours on monocytes,upregulate
